How the values were obtained:
[1] = test system: BPGH16 mutant H398A; experiment: Kinetics of BPGH16 mutant H398A (DNS assay); type: biochemical, Blautia producta ATCC 27340
Experimental: (§1) The residues R331, L358, E379, D381, E384, W362, and H398 of BpGH16MLG were mutated to Ala by the Q5Site-Directed Mutagenesis Kit (New England Biolabs, UK, catalogue no. E0554S). Wild-type plasmid BpGH16-pET28a(+) was used as a template, and mutagenic forward and reverse primers were developed using NEBaseChanger with subtle modifications (Table S4). A 25 μl PCR cocktail was prepared for mutating each residue. The final concentration of Q5 Hot Start High-Fidelity 2X Master Mix was 1X, each primer was at 0.5 μM, the amount of used template was 20 ng, and the rest of the volume was made up of nuclease-free water. PCR was executed using the following conditions-initial denaturation was performed at 98 °C for 1 min, for each cycle-denaturation, annealing, and extension (72 °C) were set for 10 s, 20 s, and 7 min, respectively. […] The mutant protein was then expressed as per the protocol mentioned earlier, and kinetics were performed with barley β-glucan.
(§2) Reactions were performed in 100 μl volume mixture using recombinant enzyme (final concentration at 0.1 mg/ml) in 50 mM sodium phosphate buffer (pH 5.7) at 37 °C for 1 h of incubation. […] Enzymatic assays were determined with 3,5- dinitrosalicylic acid (DNS) assay ([85]). […] Consequently, recorded the developed color spectrophotometrically at 575 nm ([85]). […]

[2] = test system: B. producta ATCC 27340; experiment: Growth of B. producta on β-glucans; type: cell-based, Blautia producta ATCC 27340; conditions: minimal medium containing 1% glucan
Experimental: Active culture of B. producta and culture conditions were maintained following the recently reported procedure ([31]). Once B. producta grew, cells were centrifuged, and the obtained supernatant was decanted. A pellet of cells was then washed three times with phosphate-buffered saline (PBS) and washed cells were suspended in 2 ml PBS. […] The growth assessment experiments were performed for 96 h, following our recently established protocol ([82]).

[3] = test system: BoGH16MLG; parameters: method as in PMID 29141231; conditions: BoGH16MLG with barley MLG, no unit, cited from earlier work
[4] = test system: R. faecis; experiment: Growth of R. faecis on barley β-glucan; type: cell-based, Roseburia faecis; conditions: minimal medium with 1% barley β-glucan, no BpGH16MLG
Experimental: […] JCM 31261, B. pseudocatenulatum JCM 1200^T, B. adolescentis JCM 1275^T, B. coccoides JCM 1395^T, B. bifidum JCM 1254, and A. caccae JCM 13470^T were used for bacterial mono-culture experiments. […] About 5 μl glycerol stock was initially inoculated to 5 ml of GAM for the primary culture of these strains. […] The experiment was set up on 300 μl flat-bottomed 96-well microtiter plates. Reading was taken every interval of 8 h at 600 nm on a spectrophotometer.

[5] = test system: BpGH16MLG; experiment: Initial screening of BpGH16MLG against substrates (TLC); type: biochemical, Blautia producta ATCC 27340; conditions: pH 5.7, 37 °C, 2 h
Experimental: After the appropriate incubation time, the reaction was terminated by boiling (5 min), and generated oligosaccharides were analyzed by thin layer chromatography (TLC). Typically, 1 μl of the reaction mixture was used for TLC analysis. TLC analysis was performed on Silica Gel 60 F254 (Merck), and produced sugars were visualized by spraying TLC with 5% H2SO4 in ethanol, followed by heating.

[6] = test system: BPGH16 mutant E379A; experiment: Kinetics of BPGH16 mutant E379A (DNS assay); type: biochemical, Blautia producta ATCC 27340
Experimental: as §1, §2

For Barley β-glucan, the kcat [1] was 0 s⁻¹, the “growth of B. producta on the glucan” value [2] was “showed growth” and the “growth of B. producta on the glucan” value ([2]; listed as barley MLG) was “able to grow”. For the same substance, the kcat ([3]; in 1/s) was 85.8 ± 4.6, the Km ([3]; in mg/mL) was 0.364 ± 0.051 and the “growth of R. faecis” value [4] was “could not grow”. The “activity of BpGH16MLG on substrate (initial screening)” value [5] was “did cleave” and the kcat [6] was 0 s⁻¹.

From publication PMC10318527, “Utilization of dietary mixed-linkage β-glucans by the Firmicute Blautia producta” (The Journal of Biological Chemistry, 2023)
